Assay results taken from US12410178B2, “Small cationic ortho-5,15-di-heteroaryl-porphyrin derivatives and their applications in photoinactivation of microorganisms” (UNIVERSIDADE DE COIMBRA, priority 2019, dated 2025).

Assays:
[1] = tested on: Staphylococcus aureus ATCC 25925 biofilms; experiment: PDI phototoxicity towards biofilms (CFU); format: cell-based
Procedure: Phototoxicity towards biofilms was evaluated after biofilm growth overnight. Assays were performed with biofilms from Staphylococcus aureus ATCC 25925. Initially, bacteria cultures were diluted 1:9 in Brain Heart Infusion (BHI) (Kasvi®, Brazil). The microorganisms were centrifuged (1500 rpm, 10 min) and washed twice with phosphate-buffered saline (PBS). Aliquots of the diluted bacterial suspensions were inoculated into 24-well flat-bottom sterile polystyrene microplates and incubated for 24 h at 37° C. For PDI experiments, the plates with biofilms were incubated with 5.2 nM of the photosensitizer for 30 min in the dark at room temperature. Wells used as controls were incubated with PBS only. After that, the plates were illuminated with a specially designed light source named Biotable®. The Biotable® was composed by 24 LED lamps that deliver a uniform light fluence rate of 30 mW/cm^2 in the wavelength range between 400-650 rm. […] After this time, the colonies were counted and the colony-forming units (CFU) determined.
For the phototoxicity study, Staphylococcus aureus ATCC 25925 biofilms grown on 24-well flat-bottom sterile polystyrene microplates were incubated with 5.2 nM of the cationic ortho-5,15-di-heteroaryl porphyrin with Formula (IIa) for 30 min in the dark at room temperature. […] After this time, the colonies were counted and CFU determined. […]

Solubility in water = format: physicochemical
[2] = tested on: Escherichia coli ATCC 25922; experiment: PDI phototoxicity towards planktonic bacteria (CFU); format: cell-based
Procedure: (§1) Phototoxicity towards bacteria was evaluated in vitro. Assays were performed with the following bacteria: Escherichia coli ATCC 25922, Pseudomonas aeruginosa ATCC 27853 and Staphylococcus aureus ATCC 29213. Further assay were performed with clinical antibiotic-resistant strains from the Centro Hospitalar da Universidade de Coimbra, namely Staphylococcus aureus methicillin-resistant (MRSA) strain Sa1CHUC recovered from the skin of a burnt patient (resistant to all beta-lactamic antibiotics), and Acinetobacter baumannii 141HUC isolated from an exudate of a burn wound and highly resistant to all beta-lactamics (penicillins, cephalosporins, monobactams and carbapenems), quinolones and the aminoglycosides gentamicin and netilmicin. The planktonic bacteria cells were cultured in Mueller Hinton (MH) agar (Sigma Aldrich) at 37° C. overnight. Cell density was adjusted to the 0.5 McFarland standard in sterile water, which corresponds to approximately 1.5×10^8 CFU/mL. For PDI experiments cell suspensions of bacteria were incubated with various concentrations of the photosensitizers for 1 h, in the dark, at room temperature, using a 96 well plate. Then, the plate was illuminated with a blue light LED (420 nm, 4 mJ/s). Cells incubated with photosensitizers in the dark were covered with aluminum foil for the same time as the PDI groups (1 h). After illumination (or dark incubation) samples were shaken, diluted in PBS and mixed. Aliquots were taken from each well and streaked in MH agar in duplicate for CFU determination and incubated for 37° C./18-24 h in the dark. After 24 h, the colonies were counted and CFU determined. The experiments were performed in triplicate. Statistical analysis was performed with GraphPad Prism 6.
(§2) This example describes the evaluation of in vitro phototoxicity against Gram-positive and Gram-negative bacteria of the cationic ortho-5,15-di-heteroaryl porphyrin with Formula (IIa). The phototoxicity was measured according to the description in the Materials and Methods section. […] There is a dose-phototoxicity response of the test compound relative to the non-treated control. FIG. 8 illustrates the CFU reduction as a function of photosensitizer concentration for the light dose of 1.36 J/cm^2 at 415 nm.

[3] = tested on: Staphylococcus aureus ATCC 29213; experiment: as above; format: cell-based
Procedure: as §1, §2

[4] = tested on: Pseudomonas aeruginosa ATCC 27853; experiment: as above; format: cell-based; conditions: 60 min incubation
Procedure: as §1, §2

[5] = tested on: Staphylococcus aureus methicillin-resistant (MRSA) strain Sa1CHUC; experiment: PDI phototoxicity towards multidrug-resistant planktonic bacteria (CFU); format: cell-based; conditions: 60 min incubation, 1.36 J/cm^2 at 415 nm
Procedure: as §1
(§3) This example describes the evaluation of in vitro phototoxicity against multidrug-resistant Gram-positive and Gram-negative bacteria of the cationic ortho-5,15-di-heteroaryl porphyrin with Formula (IIa). Assays were performed with clinical resistant strains from the Centro Hospitalar da Universidade de Coimbra, namely Staphylococcus aureus methicillin-resistant (MRSA) strain Sa1CHUC collected from the skin of a burnt patient (resistant to all beta-lactamic antibiotics), and Acinetobacter baumannii 141HUC highly resistant all beta-lactamics, including carbapenems, quinolones, gentamicin and netilmicin, isolated from an exudate of a burn wound. The phototoxicity was measured according to the description in the Materials and Methods section. […] There is a dose-phototoxicity response of the test compound relative to the non-treated control. FIG. 9 illustrates the CFU reduction as a function of photosensitizer concentration for the light dose of 1.36 J/cm^2 at 415 nm.

[6] = tested on: Acinetobacter baumannii 141HUC; experiment: as above; format: cell-based; conditions: 60 min incubation, 1.36 J/cm^2 at 415 nm
Procedure: as §1, §3

[7] = n-Octanol:PBS partition ratio (modified shake-flask); format: physicochemical; conditions: equal volumes
Excerpt: n-Octanol:PBS partition ratio: a modification of the shake-flask method was employed to determine the equilibrium concentrations of the photosensitizer in n-octanol and in phosphate-buffered saline (PBS) mixed in equal volumes, using the typical fluorescence band of the same photosensitizer and the ratio of the fluorescences after dilution by the same factor with dimethylsulfoxide.

[8] = 1 μM, planktonic, 1.36 J/cm^2 at 415 nm, 60 min incubation
[9] = nanomolar concentrations, 60 min incubation, low light doses

## Cn1cc[n+](C)c1C1=C2C=CC3=[N+]2[Zn@]24[n]5c(ccc51)C=C1C=CC(=[N+]12)C(c1n(C)cc[n+]1C)=c1ccc([n]14)=C3 [Formula (IIa), 5,15-bis(1,3-dimethylimidazol-2-yl)porphyrinate zinc (II) diiodide]
[1]; 5.2 nM, biofilm, 5 J/cm^2, 400-650 nm, 30 min incubation
  log CFU at 5.2 nM, S. Aureus biofilm: 7
[1]; ca. 5 nM, 5 J/cm^2 of white light
  reduction of bacteria in the biofilm: 7 orders of magnitude
Solubility in water
  solubility in water: soluble in water
[2]; 1 μM, 1.36 J/cm^2 at 415 nm
  reduction of the number of bacterial CFU: 7 orders of magnitude
[2]; [8]
  log CFU at 1 μM, E. Coli: 7
[2]; [9]
  CFU reduction (in words): dramatic decrease in CFU
[3]; 1 μM, 1.36 J/cm^2 at 415 nm
  reduction of the number of bacterial CFU: 7 orders of magnitude
[3]; [8]
  log CFU at 1 μM, S. Aureus: 7
[3]; [9]
  CFU reduction (in words): dramatic decrease in CFU
[4]; 1 μM, planktonic, 1.36 J/cm^2 at 415 nm
  log CFU at 1 μM, P. Aerogirosa: 3
[4]; nanomolar concentrations, low light doses
  CFU reduction (in words): dramatic decrease in CFU
[5]; 1 μM
  reduction of the number of bacterial CFU (in words): dramatic decrease in CFU
[5]; planktonic
  log CFU at 1 μM, S. Aureus MRSA: 7
[6]; 1 μM
  reduction of the number of bacterial CFU (in words): dramatic decrease in CFU
[6]; planktonic
  log CFU at 1 μM, Acinetobacter 141Hu: 7
[7]
  log Pow: −1.16
